Data from patent US20230406831A1, “COMPOUNDS AND METHODS OF INHIBITING BACTERIAL CHAPERONIN SYSTEMS” (THE TRUSTEES OF INDIANA UNIVERSITY, priority 2020, published 2023).
Where two headings read alike, the source gives them in different places.

Key:
native MDH = molecular target: T1, native MDH (Sus scrofa, UniProt P00346); assay: Native MDH enzymatic activity counter-screen; format: biochemical, pig; conditions: compounds added after refolding and EDTA quench, read-out: Biochemical Assay IC50 Native MDH Activity
T1 construct: soluble pig heart MDH from Roche, product #10127248001; purchased Roche 10127248001; host or cells: pig heart
T1 sequence (P00346 25-338): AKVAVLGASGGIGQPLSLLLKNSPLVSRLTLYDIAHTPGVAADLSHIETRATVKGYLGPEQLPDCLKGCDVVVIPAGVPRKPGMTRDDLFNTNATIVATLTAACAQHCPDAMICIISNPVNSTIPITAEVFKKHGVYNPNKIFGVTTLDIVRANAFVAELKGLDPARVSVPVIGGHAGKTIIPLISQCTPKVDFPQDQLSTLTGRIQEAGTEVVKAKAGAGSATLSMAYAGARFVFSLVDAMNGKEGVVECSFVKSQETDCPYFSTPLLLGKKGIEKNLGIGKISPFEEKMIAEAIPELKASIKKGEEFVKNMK
Description: Counter-screening compounds for inhibition of native MDH enzymatic activity.
Reagent Preparations & Assay Protocol: This assay was performed as described above for the GroEL/ES-dMDH refolding assay; however, the assay protocol differed in the sequence of compound addition to the assay plates. The refolding reactions were allowed to proceed for 45 min at 37° C. in the absence of test compounds (complete refolding of MDH occurs), then quenched with the EDTA stock. Compounds were then pin-transferred into the plates after the EDTA quenching step; thus, compounds effects are only possible by inhibiting the fully-refolded MDH reporter substrate. Next enzymatic activity of the refolded MDH was initiated by addition of 20 μL MDH enzymatic assay stock (20 mM sodium mesoxalate and 2.4 mM NADH in reaction buffer, 50 mM Tris pH 7.4, 50 mM KCl, 1 mM DTT), and followed by measuring the NADH absorbance in each well at 340 nm using a Molecular Devices SpectraMax Plus384 microplate reader
A340 nm measurements were recorded at 0.5 minutes (start point) and at successive time points until the amount of NADH consumed reached ˜90% (end point, generally between 20-35 minutes). Compounds were tested in 8-point, 3-fold dilution series (62.5 μM to 29 nM during the reporter reaction) in clear, flat-bottom 384-well microtiter plates.
DMSO was used as a negative control, and previously discovered native MDH inhibitors were used as positive controls. IC50 values for the test compounds were obtained by plotting the % inhibition results in GraphPad Prism 6 and analyzing by non-linear regression using the log (inhibitor) vs. response (variable slope) equation. Results presented represent the averages of IC50 values obtained from at least quadriplicate (duplicate of duplicate) replicates.

HSP60/10 = molecular target: T2, HSP60/10 (Homo sapiens, UniProt P10809); assay: HSP60/10-mediated dMDH refolding assay; format: biochemical; conditions: 37° C., 1 mM ATP, read-out: Biochemical Assay IC50 HSP60/10-dMDH Refolding
T2 construct: octa-Histidine (His8) tag, TEV-cleavable (N, cleaved yes); made in house; host or cells: HSP60 in Rosetta 2 (DE3) E. coli; HSP10 in Rosetta 2 (DE3) pLysS
How it was run: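 Pre-formed chaperonin–denatured pig heart MDH complexes (50 nM GroEL or HSP60, 60 nM GroES or HSP10, 12 nM dMDH) refolded with 1 mM ATP and compound (100 μM–46 nM) at 37 °C, ~20-40 min for GroEL/ES or ~40-60 min for HSP60/10. After EDTA quench, MDH activity was read as NADH loss at A340. IC50 came from variable-slope regression.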

T2 sequence (P10809 27-573): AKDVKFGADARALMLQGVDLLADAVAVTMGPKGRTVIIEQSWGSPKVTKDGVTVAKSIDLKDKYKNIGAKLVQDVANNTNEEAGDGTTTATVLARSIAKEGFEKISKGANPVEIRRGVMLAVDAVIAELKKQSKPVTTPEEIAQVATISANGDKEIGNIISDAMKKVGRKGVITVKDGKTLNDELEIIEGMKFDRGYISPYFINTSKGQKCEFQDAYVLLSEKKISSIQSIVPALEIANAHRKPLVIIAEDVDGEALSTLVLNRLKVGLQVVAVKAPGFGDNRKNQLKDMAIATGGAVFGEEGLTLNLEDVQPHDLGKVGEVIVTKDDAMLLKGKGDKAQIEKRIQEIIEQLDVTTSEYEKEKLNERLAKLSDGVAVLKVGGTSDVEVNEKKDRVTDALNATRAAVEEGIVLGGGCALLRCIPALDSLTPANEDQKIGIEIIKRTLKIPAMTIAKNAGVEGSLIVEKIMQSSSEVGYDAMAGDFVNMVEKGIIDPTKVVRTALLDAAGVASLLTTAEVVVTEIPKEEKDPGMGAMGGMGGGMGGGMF

| SMILES | IC50 (native MDH; Table 3) [µM] | IC50 (HSP60/10; Table 3) [µM] | IC50 (native MDH; Table 2) [µM] | IC50 (HSP60/10; Table 2) [µM] | other results |
| --- | --- | --- | --- | --- | --- |
| COc1ccc(Cl)cc1C(=O)Nc1ccc(Sc2nc3ccccc3s2)cc1 [Compound 96, N-(4-(benzo[d]thiazol-2-ylthio)phenyl)-5-chloro-2-methoxybenzamide] | > 63 | > 100 | – | – | – |
| COc1ccc(Cl)cc1C(=O)Nc1cc(Cl)c(C(C#N)c2ccc(Cl)cc2)cc1C (stereo not shown) [Compound 57, 5-chloro-N-(5-chloro-4-((4-chlorophenyl)(cyano)methyl)-2-methylphenyl)-2-methoxybenzamide] | > 63 | > 100 | > 63 | > 100 | – |
| O=C(Nc1ccc(OCc2ccccc2)cc1)c1cc(Cl)ccc1O [Compound 103, N-(4-(benzyloxy)phenyl)-5-chloro-2-hydroxybenzamide] | > 63 | > 100 | – | – | – |
| CC(=O)Nc1cc(Cl)c(C(C#N)c2ccc(Cl)cc2)cc1C (stereo not shown) [Compound 83, N-(5-chloro-4-((4-chlorophenyl)(cyano)methyl)-2-methylphenyl)acetamide] | – | – | > 63 | 69 | – |
| O=C(Nc1ccc(Sc2nc3ccccc3s2)c(Cl)c1)c1cc(Cl)ccc1O [Compound 95, N-(4-(benzo[d]thiazol-2-ylthio)-3-chlorophenyl)-5-chloro-2-hydroxybenzamide] | > 63 | 39 | – | – | – |
| Cc1cc(C(C#N)c2ccc(Cl)cc2)c(Cl)cc1NC(=O)c1ccc(N)cc1 (stereo not shown) [Compound 72, 4-amino-N-(5-chloro-4-((4-chlorophenyl)(cyano)methyl)-2-methylphenyl)benzamide] | – | – | > 63 | 73 | – |
| O=C(Nc1ccc(Sc2nc3ccccc3s2)cc1)c1cc(Cl)ccc1O [Compound 97, N-(4-(benzo[d]thiazol-2-ylthio)phenyl)-5-chloro-2-hydroxybenzamide] | > 63 | 59 | – | – | – |
| Cc1cc(C(C#N)c2ccc(Cl)cc2)c(Cl)cc1NC(=O)c1cccc(Br)c1O (stereo not shown) [Compound 48, 3-bromo-N-(5-chloro-4-((4-chlorophenyl)(cyano)methyl)-2-methylphenyl)-2-hydroxybenzamide] | – | – | 48 | 7.7 | – |
| O=C(Nc1ccc(Oc2ccc(Cl)cc2)cc1)c1cc(Cl)ccc1O [Compound 89, 5-chloro-N-(4-(4-chlorophenoxy)phenyl)-2-hydroxybenzamide] | > 63 | 45 | – | – | – |
| CC(=O)Oc1ccccc1C(=O)Nc1ncc([N+](=O)[O-])s1 [Nitazoxanide, reference compound] | – | – | – | – | IC50 (native MDH; Table 1): > 63 µM; IC50 (HSP60/10; Table 1): > 100 µM |
| COc1ccc(Cl)cc1C(=O)Nc1ccc(C(=O)O)cc1 [Compound 108, 4-(5-chloro-2-methoxybenzamido)benzoic acid] | > 63 | > 100 | – | – | – |
| Cc1cc(C(C#N)c2ccc(Cl)cc2)c(Cl)cc1NC(=O)c1ccc(Cl)cc1O (stereo not shown) [Compound 56, 4-chloro-N-(5-chloro-4-((4-chlorophenyl)(cyano)methyl)-2-methylphenyl)-2-hydroxybenzamide] | – | – | 59 | 17 | – |
| Cc1cc(C(C#N)c2ccc(Cl)cc2)c(Cl)cc1NC(=O)c1ccccc1Br (stereo not shown) [Compound 73, 2-bromo-N-(5-chloro-4-((4-chlorophenyl)(cyano)methyl)-2-methylphenyl)benzamide] | – | – | > 63 | > 100 | – |
| COc1ccc(Cl)cc1C(=O)Nc1ccc(Oc2ccc(Cl)cc2)cc1 [Compound 88, 5-chloro-N-(4-(4-chlorophenoxy)phenyl)-2-methoxybenzamide] | > 63 | > 100 | – | – | – |
| Cc1cc(C(C#N)c2ccc(Cl)cc2)c(Cl)cc1NC(=O)c1ccc(Cl)cc1 (stereo not shown) [Compound 78, 4-chloro-N-(5-chloro-4-((4-chlorophenyl)(cyano)methyl)-2-methylphenyl)benzamide] | – | – | > 63 | > 100 | – |
| COc1ccc(Cl)cc1C(=O)Nc1ccc(Sc2nc3ccccc3s2)c(Cl)c1 [Compound 94, N-(4-(benzo[d]thiazol-2-ylthio)-3-chlorophenyl)-5-chloro-2-methoxybenzamide] | > 63 | > 100 | – | – | – |

| SMILES | IC50 (native MDH; Table 3) [µM] | IC50 (HSP60/10; Table 3) [µM] | IC50 (native MDH; Table 2) [µM] | IC50 (HSP60/10; Table 2) [µM] | other results |
| --- | --- | --- | --- | --- | --- |
| Cc1cc(C(C#N)c2ccc(Cl)cc2)c(Cl)cc1NC(=O)c1ccccc1Cl (stereo not shown) [Compound 76, 2-chloro-N-(5-chloro-4-((4-chlorophenyl)(cyano)methyl)-2-methylphenyl)benzamide] | – | – | > 63 | > 100 | – |
| CC(=O)Nc1ccc(NC(=O)c2cc(Cl)ccc2O)cc1 [Compound 105, N-(4-acetamidophenyl)-5-chloro-2-hydroxybenzamide] | > 63 | > 100 | – | – | – |
| Cc1cc(C(C#N)c2ccc(Cl)cc2)c(Cl)cc1NC(=O)c1cc(Br)ccc1O (stereo not shown) [Compound 50, 5-bromo-N-(5-chloro-4-((4-chlorophenyl)(cyano)methyl)-2-methylphenyl)-2-hydroxybenzamide] | – | – | 55 | 20 | – |
| COc1ccc(Cl)cc1C(=O)Nc1ccc(NC(C)=O)cc1 [Compound 104, N-(4-acetamidophenyl)-5-chloro-2-methoxybenzamide] | > 63 | > 100 | – | – | – |
| Cc1cc(C(C#N)c2ccc(Cl)cc2)c(Cl)cc1NC(=O)c1cccc(Cl)c1 (stereo not shown) [Compound 77, 3-chloro-N-(5-chloro-4-((4-chlorophenyl)(cyano)methyl)-2-methylphenyl)benzamide] | – | – | > 63 | > 100 | – |
| Cc1cc(C(C#N)c2ccc(Cl)cc2)c(Cl)cc1NC(=O)c1ccccc1 (stereo not shown) [Compound 82, N-(5-chloro-4-((4-chlorophenyl)(cyano)methyl)-2-methylphenyl)benzamide] | – | – | > 63 | > 100 | – |
| Cc1cc(C(C#N)c2ccc(Cl)cc2)c(Cl)cc1NC(=O)c1cc(Cl)cc(Cl)c1O (stereo not shown) [Compound 52, 3,5-dichloro-N-(5-chloro-4-((4-chlorophenyl)(cyano)methyl)-2-methylphenyl)-2-hydroxybenzamide] | – | – | 5.5 | 5.2 | – |
| Cc1cc(C(C#N)c2ccc(Cl)cc2)c(Cl)cc1NC(=O)c1cc(I)cc(I)c1O (stereo not shown) [Closantel, reference compound] | – | – | – | – | IC50 (native MDH; Table 1): 6 µM; IC50 (HSP60/10; Table 1): 3 µM |
| COc1ccc(C(=O)Nc2cc(Cl)c(C(C#N)c3ccc(Cl)cc3)cc2C)cc1 (stereo not shown) [Compound 63, N-(5-chloro-4-((4-chlorophenyl)(cyano)methyl)-2-methylphenyl)-4-methoxybenzamide] | – | – | > 63 | > 100 | – |
| Cc1ccc(O)c(C(=O)Nc2cc(Cl)c(C(C#N)c3ccc(Cl)cc3)cc2C)c1 (stereo not shown) [Compound 60, N-(5-chloro-4-((4-chlorophenyl)(cyano)methyl)-2-methylphenyl)-2-hydroxy-5-methylbenzamide] | – | – | > 63 | 85 | – |
| COc1ccc(Cl)cc1C(=O)Nc1ccc(Oc2ccccc2)c(Cl)c1 [Compound 90, 5-chloro-N-(3-chloro-4-phenoxyphenyl)-2-methoxybenzamide] | > 63 | > 100 | – | – | – |
| COc1ccc(Cl)cc1C(=O)Nc1ccc(Oc2ccccc2)cc1 [Compound 92, 5-chloro-2-methoxy-N-(4-phenoxyphenyl)benzamide] | > 63 | > 100 | – | – | – |
| O=C(Nc1ccccc1)c1cc(Cl)ccc1O [Compound 117, 5-chloro-2-hydroxy-N-phenylbenzamide] | > 63 | > 100 | – | – | – |
| COC(=O)c1ccc(NC(=O)c2cc(Cl)ccc2OC)cc1 [Compound 106, methyl 4-(5-chloro-2-methoxybenzamido)benzoate] | > 63 | > 100 | – | – | – |
| Cc1cc(C(C#N)c2ccc(Cl)cc2)c(Cl)cc1NC(=O)c1cccc([N+](=O)[O-])c1 (stereo not shown) [Compound 68, N-(5-chloro-4-((4-chlorophenyl)(cyano)methyl)-2-methylphenyl)-3-nitrobenzamide] | – | – | > 63 | > 100 | – |
